Legend:
rats [1] = test: Intratracheal instillation of MALP-2 in rats, cells determined by bronchoalveolar lavage (BAL); conditions: 3 μg instilled into the trachea
Procedure: 1) 3 μg of MALP-2 (an S-(2,3-bisacyloxypropyl)-cysteine peptide) are instilled into the trachea of rats. At various times after treatment, cells from the lung lumen are determined by means of bronchoalveolar lavage (BAL).

[2] = intraperitoneal injection of a few μg; cited from earlier work
rats [3] = test: Repeated inhalation of MALP-2 by mask in rats; format: in vivo, rat; conditions: 30 μg inhaled by mask, six occasions at one-week intervals
Procedure: 2) With the aid of a mask, rats are made to inhale 30 μg doses of MALP-2 on six occasions at one-week intervals.

MALP-2: macrophage-activating lipopeptide (an S-(2,3-bisacyloxypropyl)-cysteine peptide) isolated from Mycoplasma fermentans
adverse effect on the animals (rats [1]): not detectable
duration of the increase in leukocyte number (rats [1]): lasts for a few days
food consumption, bodyweight, activity and behaviour (rats [1]): not noteworthy
number of leukocytes in the respiratory tracts and the alveolar space (BAL) (rats [1]; after a few hours): increase in the number of leukocytes
leukocyte infiltration [2]: has brought about leukocyte infiltration
clinical condition of the animals (rats [3]): clinically not noteworthy
lymphatic tissue in the bronchial mucosa (rats [3]): increase in the lymphatic tissue

Reference: US20040249133A1, “Use of lipopeptides or lipoproteins for treating lung infections and lung tumours” (priority 2000, published 2004)
